Measurements from PubChem BioAssay (NCI).
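All cell lines were grown in 96-well plates and treated with compound for 48 hours. Abbreviation: GI50, concentration required for 50% inhibition of growth. TGI: concentration producing complete growth inhibition.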

Experiments:
Experiment in all cases: inhibition of tumour cell growth, NCI panel, 48 h; in the data active means GI50 below about 0.43 µM; inactive means the rest
786-0 renal = tested on: 786-0 renal
A549 NSCLC = tested on: A549 NSCLC
ACHN renal = tested on: ACHN renal
CAKI-1 renal = tested on: CAKI-1 renal
CCRF-CEM leukemia = tested on: CCRF-CEM leukemia
COLO 205 colon = tested on: COLO 205 colon
DU-145 prostate = tested on: DU-145 prostate
EKVX NSCLC = tested on: EKVX NSCLC
HCC-2998 colon = tested on: HCC-2998 colon
HCT-116 colon = tested on: HCT-116 colon
HCT-15 colon = tested on: HCT-15 colon
HOP-62 NSCLC = tested on: HOP-62 NSCLC
HOP-92 NSCLC = tested on: HOP-92 NSCLC
HS 578T breast = tested on: HS 578T breast
HT29 colon = tested on: HT29 colon
IGROV1 ovarian = tested on: IGROV1 ovarian
K-562 leukemia = tested on: K-562 leukemia
KM12 colon = tested on: KM12 colon
LOX IMVI melanoma = tested on: LOX IMVI melanoma
M14 melanoma = tested on: M14 melanoma
MALME-3M melanoma = tested on: MALME-3M melanoma
MCF7 breast = tested on: MCF7 breast
MDA-MB-231 breast = tested on: MDA-MB-231 breast
MDA-MB-435 = tested on: MDA-MB-435
MOLT-4 leukemia = tested on: MOLT-4 leukemia
NCI-H226 lung = tested on: NCI-H226 lung
NCI-H23 lung = tested on: NCI-H23 lung
NCI-H460 lung = tested on: NCI-H460 lung
NCI-H522 lung = tested on: NCI-H522 lung
NCI/ADR-RES ovarian = tested on: NCI/ADR-RES ovarian
OVCAR-3 ovarian = tested on: OVCAR-3 ovarian
OVCAR-4 ovarian = tested on: OVCAR-4 ovarian
OVCAR-5 ovarian = tested on: OVCAR-5 ovarian
OVCAR-8 ovarian = tested on: OVCAR-8 ovarian
PC-3 prostate = tested on: PC-3 prostate
RPMI-8226 leukemia = tested on: RPMI-8226 leukemia
SF-268 CNS = tested on: SF-268 CNS
SF-295 CNS = tested on: SF-295 CNS
SK-MEL-2 melanoma = tested on: SK-MEL-2 melanoma
SK-MEL-28 melanoma = tested on: SK-MEL-28 melanoma
SK-MEL-5 melanoma = tested on: SK-MEL-5 melanoma
SK-OV-3 ovarian = tested on: SK-OV-3 ovarian
SN12C renal = tested on: SN12C renal
SNB-19 CNS = tested on: SNB-19 CNS
SNB-75 CNS = tested on: SNB-75 CNS
SR leukemia = tested on: SR leukemia
SW-620 colon = tested on: SW-620 colon
T-47D breast = tested on: T-47D breast
TK-10 renal = tested on: TK-10 renal
U251 CNS = tested on: U251 CNS
UACC-257 melanoma = tested on: UACC-257 melanoma
UACC-62 melanoma = tested on: UACC-62 melanoma
UO-31 renal = tested on: UO-31 renal

Cc1cccc2c1ccc1c3occ(C)c3c(=O)oc21
inactive: GI50 (786-0 renal) > 100 µM | GI50 (A549 NSCLC) > 100 µM | GI50 (ACHN renal) > 100 µM | GI50 (CAKI-1 renal) > 100 µM | GI50 (CCRF-CEM leukemia) > 100 µM | GI50 (COLO 205 colon) > 100 µM | GI50 (DU-145 prostate) > 100 µM | GI50 (EKVX NSCLC) 76.6 µM | GI50 (HCC-2998 colon) > 100 µM | GI50 (HCT-116 colon) > 100 µM | GI50 (HCT-15 colon) > 100 µM | GI50 (HOP-62 NSCLC) > 100 µM | GI50 (HOP-92 NSCLC) 49.9 µM | GI50 (HS 578T breast) > 100 µM | GI50 (HT29 colon) > 100 µM | GI50 (IGROV1 ovarian) > 100 µM | GI50 (K-562 leukemia) > 100 µM | GI50 (KM12 colon) > 100 µM | GI50 (LOX IMVI melanoma) 80.3 µM | GI50 (M14 melanoma) > 100 µM | GI50 (MALME-3M melanoma) > 100 µM | GI50 (MCF7 breast) 23.4 µM | GI50 (MDA-MB-231 breast) > 100 µM | GI50 (MDA-MB-435) > 100 µM | GI50 (MOLT-4 leukemia) 51.5 µM | GI50 (NCI-H226 lung) > 100 µM | GI50 (NCI-H23 lung) > 100 µM | GI50 (NCI-H460 lung) 93.1 µM | GI50 (NCI-H522 lung) > 100 µM | GI50 (NCI/ADR-RES ovarian) > 100 µM | GI50 (OVCAR-3 ovarian) > 100 µM | GI50 (OVCAR-4 ovarian) > 100 µM | GI50 (OVCAR-5 ovarian) > 100 µM | GI50 (OVCAR-8 ovarian) > 100 µM | GI50 (PC-3 prostate) > 100 µM | GI50 (RPMI-8226 leukemia) > 100 µM | GI50 (SF-268 CNS) > 100 µM | GI50 (SF-295 CNS) > 100 µM | GI50 (SK-MEL-2 melanoma) > 100 µM | GI50 (SK-MEL-28 melanoma) > 100 µM | GI50 (SK-MEL-5 melanoma) > 100 µM | GI50 (SK-OV-3 ovarian) > 100 µM | GI50 (SN12C renal) > 100 µM | GI50 (SNB-19 CNS) > 100 µM | GI50 (SNB-75 CNS) 45.7 µM | GI50 (SR leukemia) > 100 µM | GI50 (SW-620 colon) > 100 µM | GI50 (T-47D breast) 9.65 µM | GI50 (TK-10 renal) > 100 µM | GI50 (U251 CNS) > 100 µM | GI50 (UACC-257 melanoma) > 100 µM | GI50 (UACC-62 melanoma) > 100 µM | GI50 (UO-31 renal) > 100 µM
> 100 µM: TGI (786-0 renal) | TGI (A549 NSCLC) | TGI (ACHN renal) | TGI (CAKI-1 renal) | TGI (CCRF-CEM leukemia) | TGI (COLO 205 colon) | TGI (DU-145 prostate) | TGI (EKVX NSCLC) | TGI (HCC-2998 colon) | TGI (HCT-116 colon) | TGI (HCT-15 colon) | TGI (HOP-62 NSCLC) | TGI (HOP-92 NSCLC) | TGI (HS 578T breast) | TGI (HT29 colon) | TGI (IGROV1 ovarian) | TGI (K-562 leukemia) | TGI (KM12 colon) | TGI (LOX IMVI melanoma) | TGI (M14 melanoma) | TGI (MALME-3M melanoma) | TGI (MCF7 breast) | TGI (MDA-MB-231 breast) | TGI (MDA-MB-435) | TGI (MOLT-4 leukemia) | TGI (NCI-H226 lung) | TGI (NCI-H23 lung) | TGI (NCI-H460 lung) | TGI (NCI-H522 lung) | TGI (NCI/ADR-RES ovarian) | TGI (OVCAR-3 ovarian) | TGI (OVCAR-4 ovarian) | TGI (OVCAR-5 ovarian) | TGI (OVCAR-8 ovarian) | TGI (PC-3 prostate) | TGI (RPMI-8226 leukemia) | TGI (SF-268 CNS) | TGI (SF-295 CNS) | TGI (SK-MEL-2 melanoma) | TGI (SK-MEL-28 melanoma) | TGI (SK-MEL-5 melanoma) | TGI (SK-OV-3 ovarian) | TGI (SN12C renal) | TGI (SNB-19 CNS) | TGI (SNB-75 CNS) | TGI (SR leukemia) | TGI (SW-620 colon) | TGI (T-47D breast) | TGI (TK-10 renal) | TGI (U251 CNS) | TGI (UACC-257 melanoma) | TGI (UACC-62 melanoma) | TGI (UO-31 renal)
